Data taken from US8551978B2 (Theravance, Inc., priority 2009, dated 2013).
pEC50, pKi: −log10 of the molar value. Where a name gives a salt, the structure may show the parent alone. Read-outs that look alike come from different tables or passages of the source.

Columns and labels:
[1] = system: MCh-induced bronchoconstriction; experiment: Einthoven assay: bronchoprotection against methacholine (MCh)-induced bronchoconstriction; assay type: in vivo, rat; settings: for inhibition in vivo at 0.1 mg: inhaled or nasal, read-out: Broncho. at 24 h
Procedure: This assay measures the ability of a test compound to provide bronchoprotection against methacholine (MCh)-induced bronchoconstriction in a rat. Male Sprague-Dawley rats (Harlan, Indianapolis, Ind.), weighing between 200 g and 350 g, were used for all studies. Test compound or vehicle (sterile deionized water) were dosed by inhalation (1H) over a 10 min period in a pie shaped inhalation chamber (R+S Molds, San Carlos, Calif.) using 5 mL of dosing solution. […] Rats were dosed with 100 μg of test compound unless otherwise indicated. At predetermined time points, rats were anesthetized with an intraperitoneal (IP) injection of 120 mg/kg inactin (thiobutabarbital). A supplemental dose (40 mg/kg, IP) was administered if the animal responded to physical stimuli (e.g. toe pinch). The surgical site was shaved and a 1-2 cm midline incision of the ventral aspect of the neck was made. The jugular vein was isolated and cannulated with a saline-filled polyethylene catheter (PE-50) to allow IV infusion of MCh. Trachea was dissected free and cannulated with a 14G needle (#NE-014, Small Parts, Miami Lakes, Fla.). After placement of the tracheal cannula, each rat was ventilated using a respirator (Model 683, Harvard Apparatus, Inc., MA) set at a stroke volume of 1 mL/100 g body weight (but not exceeding 2.5 mL volume) and a rate of 90 strokes per minute. A T-connector was placed along the respirator expiratory tubing to allow for measurement of changes in ventilation pressure (VP) using a Biopac transducer that was connected to a Biopac […]) pre-amplifier. Body temperature was maintained at 37° C. using a heating pad. Changes in VP were recorded using the Acknowledge Data Collection Software (Santa Barbara, Calif.). Baseline values were collected for at least 2.5 min. Rats were then challenged with non-cumulative intravenous (IV) infusions of 40 and 80 μg/kg MCh. MCh was infused intravenously for 2.5 minutes from a syringe pump (sp210iw, World Precision Instruments, Inc., Sarasota, Fla.) at a rate of 2 mL/kg/min, with a 2 minute interval between the two doses of MCh. Changes in ventilation pressure (cm H2O) in treated animals are expressed as % inhibition of MCh response relative to control animals. Other bronchoconstrictors, such as histamine and acetylcholine, can be used in place of MCh in this assay. Additionally, guinea pigs can be used instead of rats. […] Inhibition greater than or equal to 30 percent at 24 h is indicative of a long duration of action.

[2] = molecular target: hM3 muscarinic receptor (Homo sapiens (Human), UniProt P20309); experiment: Radioligand binding assay for muscarinic receptors ([3H]-NMS displacement, CHO cell membranes)
Procedure: The cells were grown in a 5% CO2, 37° C. incubator and lifted with 2 mM EDTA in dPBS. Cells were collected by 5 minute centrifugation at 650×g, and cell pellets were either stored frozen at −80° C. or membranes were prepared immediately for use. For membrane preparation, cell pellets were resuspended in lysis buffer and homogenized with a Polytron PT-2100 tissue disrupter (Kinematica AG; 20 seconds×2 bursts). Crude membranes were centrifuged at 40,000×g for 15 minutes at 4° C. The membrane pellet was then resuspended with re-suspension buffer and homogenized again with the Polytron tissue disrupter. The protein concentration of the membrane suspension was determined by the method described in Lowry et al., 1951, […], 193, 265. All membranes were stored frozen in aliquots at −80° C. or used immediately. […] The membranes were briefly homogenized using a Polytron tissue disruptor (10 seconds) prior to assay plate addition. […] The test compounds were initially dissolved to a concentration of 400 μM in dilution buffer and then serially diluted 5× with dilution buffer to final concentrations ranging from 10 μM to […]. The order of addition and volumes added to the assay plates were as follows: 25 μL radioligand, 25 μL diluted test compound, and 50 μL membranes. Assay plates were incubated for 6 hours at 37° C. […] Filter plates were rinsed three times with wash buffer (10 mM HEPES) to remove unbound radioactivity. The plates were then air-dried and 50 μL Microscint-20 liquid scintillation fluid (PerkinElmer, Inc.) were added to each well. The plates were then counted in a PerkinElmer Topcount liquid scintillation counter (PerkinElmer, Inc.). Binding data were analyzed by nonlinear regression analysis with the GraphPad Prism Software package (GraphPad Software, Inc., San Diego, Calif.) using the one-site competition model. […] These summary statistics were then converted back to K; values for data reporting.

[3] = molecular target: hβ2 adrenergic receptor (Homo sapiens (Human), UniProt P07550); experiment: Assay for determining adrenergic receptor agonist potency (cAMP Flashplate, HEK-293 cells); assay type: cell-based; settings: data rounded to nearest 1 nM
Procedure: The cell monolayer was lifted with 2 mM EDTA in PBS. Cells were pelleted by centrifugation at 1,000 rpm, and cell pellets were either stored frozen at −80° C. or membranes were prepared immediately for use. cAMP assays were performed in a radioimmunoassay format using the Flashplate Adenylyl Cyclase Activation Assay System with [^125I]-cAMP (NEN SMP004, PerkinElmer Life Sciences Inc., Boston, Mass.), according to the manufacturers instructions. […] Cells were rinsed with PBS and detached in dPBS (Dulbecco's Phosphate Buffered Saline, without CaCl2 and MgCl2) containing 2 mM EDTA or Trypsin-EDTA solution (0.05% trypsin/0.53 mM EDTA). After counting cells in Coulter cell counter, cells were pelleted by centrifugation at 1,000 rpm and re-suspended in stimulation buffer containing TBMX (PerkinElmer Kit) pre-warmed to room temperature to a concentration of 1.6×10^6 to 2.8×10^6 cells/mL. About 40,000 to 80,000 cells per well were used in this assay. […] Reactions were incubated for 10 min at 37° C. and stopped by adding 100 μL of cold detection buffer containing [^125I]-cAMP (NEN SMP004, PerkinElmer Life Sciences, Boston, Mass.). […] Data were analyzed by nonlinear regression analysis with the GraphPad Prism Software package (GraphPad Software, Inc., San Diego, Calif.) with the sigmoidal equation. The Cheng-Prusoff equation (Cheng Y, and Prusoff W H., Biochemical Pharmacology, 1973, 22, 23, 3099-108) was used to calculate the EC50 values.

[4] = rat, 100 μg by inhalation, 24 h after administration

Chain of hβ2 adrenergic receptor (P07550 whole entry): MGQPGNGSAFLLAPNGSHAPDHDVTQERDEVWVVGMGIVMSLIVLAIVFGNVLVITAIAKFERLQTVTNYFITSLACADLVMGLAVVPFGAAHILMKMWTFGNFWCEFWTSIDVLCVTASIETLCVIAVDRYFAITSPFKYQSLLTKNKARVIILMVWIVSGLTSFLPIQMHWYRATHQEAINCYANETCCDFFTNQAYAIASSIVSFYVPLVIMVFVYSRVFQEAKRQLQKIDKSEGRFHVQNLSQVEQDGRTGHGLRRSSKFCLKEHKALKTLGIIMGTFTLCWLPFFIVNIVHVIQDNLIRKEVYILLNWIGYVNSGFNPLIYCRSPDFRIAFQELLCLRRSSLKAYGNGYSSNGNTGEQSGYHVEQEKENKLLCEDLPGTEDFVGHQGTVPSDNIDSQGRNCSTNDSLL
Chain of hM3 muscarinic receptor (P20309 whole entry): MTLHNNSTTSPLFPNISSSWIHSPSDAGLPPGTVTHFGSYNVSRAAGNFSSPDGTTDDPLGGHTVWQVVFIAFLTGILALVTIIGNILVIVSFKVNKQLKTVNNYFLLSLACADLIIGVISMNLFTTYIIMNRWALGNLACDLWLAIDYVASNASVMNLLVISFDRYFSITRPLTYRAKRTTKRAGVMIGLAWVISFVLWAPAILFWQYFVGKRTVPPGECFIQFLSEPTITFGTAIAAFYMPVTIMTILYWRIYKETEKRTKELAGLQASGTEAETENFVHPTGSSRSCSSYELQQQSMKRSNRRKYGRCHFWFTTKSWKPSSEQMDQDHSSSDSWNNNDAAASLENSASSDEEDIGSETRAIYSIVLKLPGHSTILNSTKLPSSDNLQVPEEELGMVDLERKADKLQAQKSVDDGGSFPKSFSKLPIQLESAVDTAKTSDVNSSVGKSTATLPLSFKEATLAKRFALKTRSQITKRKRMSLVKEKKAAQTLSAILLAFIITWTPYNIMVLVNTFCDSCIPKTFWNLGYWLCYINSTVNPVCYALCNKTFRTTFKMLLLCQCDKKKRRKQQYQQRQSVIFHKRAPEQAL

C[C@H](Cc1cccc(CCC(=O)NCc2ccc(N(C)C(=O)CCN3CCC(OC(=O)Nc4ccccc4-c4ccccc4)CC3)cc2)c1)NC[C@H](O)c1ccc(O)c2[nH]c(=O)ccc12 [Compound I-92]
inhibition in vivo at 0.1 mg [1, 4]: > 30% | pKi [2]: 9.70 | pEC50 [3]: 9.00

CN(CCCCC(=O)Nc1ccc(CNC[C@H](O)c2ccc(O)c3[nH]c(=O)ccc23)cc1)C(=O)CCN1CCC(OC(=O)Nc2ccccc2-c2ccccc2)CC1 [Compound I-14, Biphenyl-2-ylcarbamic Acid 1-(2-{[4-(4-{[(R)-2-hydroxy-2-(8-hydroxy-2-oxo-1,2-dihydroquinolin-5-yl)ethylamino]methyl}phenylcarbamoyl)-butyl]methylcarbamoyl}ethyl)piperidin-4-yl Ester Ditrifluoroacetic Acid Salt]
inhibition in vivo at 0.1 mg ([1]; Rattus norvegicus, 24 h): > 30% | pKi [2]: 10.00 | pEC50 [3]: 9.00

CC(Cc1cccc(NC(=O)CCCN(C)C(=O)CCN2CCC(OC(=O)Nc3ccccc3-c3ccccc3)CC2)c1)NC[C@H](O)c1ccc(O)c2[nH]c(=O)ccc12 (stereo partly shown) [Compound I-10]
inhibition in vivo at 0.1 mg [1, 4]: > 30% | pKi [2]: 10.00 | pEC50 [3]: 9.00

C[C@@H](Cc1cccc(CC(=O)NCCCN(C)C(=O)CCN2CCC(OC(=O)Nc3ccccc3-c3ccccc3)CC2)c1)NC[C@H](O)c1ccc(O)c2[nH]c(=O)ccc12 [Compound I-13, Biphenyl-2-ylcarbamic Acid 1-[2-({3-[2-(3-{(S)-2-[(R)-2-Hydroxy-2-(8-hydroxy-2-oxo-1,2-dihydroquinolin-5-yl)ethylamino]propyl}phenyl)acetylamino]-propyl}methylcarbamoyl)ethyl]piperidin-4-yl Ester Ditrifluoroacetic Acid Salt]
inhibition in vivo at 0.1 mg ([1]; Rattus norvegicus, 24 h): > 30% | pKi [2]: 10.00 | pEC50 [3]: 9.00

CC(Cc1ccc(CNC(=O)Cc2ccc(N(C)C(=O)CCN3CCC(OC(=O)Nc4ccccc4-c4ccccc4)CC3)cc2)cc1)NC[C@H](O)c1ccc(O)c2[nH]c(=O)ccc12 (stereo partly shown) [Compound I-66]
Broncho. at 24 h [1, 4]: No | pKi [2]: 9.70 | pEC50 [3]: 9.00

COc1cc(NC(=O)CCCCN(C)C(=O)CCN2CCC(OC(=O)Nc3ccccc3-c3ccccc3)CC2)ccc1CNC[C@H](O)c1ccc(O)c2[nH]c(=O)ccc12 [Compound I-17]
inhibition in vivo at 0.1 mg [1, 4]: > 30% | pKi [2]: 10.00 | pEC50 [3]: 9.00

COc1ccc(CC(C)NC[C@H](O)c2ccc(O)c3[nH]c(=O)ccc23)cc1CC(=O)NCc1ccc(N(C)C(=O)CCN2CCC(OC(=O)Nc3ccccc3-c3ccccc3)CC2)cc1 (stereo partly shown) [Compound I-94]
inhibition in vivo at 0.1 mg [1, 4]: > 30% | pKi ([2]; hM3 Muscarinic Receptor Binding, data rounded to nearest 0.1 nM): 10.00 | pEC50 [3]: 9.00

C[C@H](Cc1cccc(CNC(=O)Cc2ccc(N(C)C(=O)CCN3CCC(OC(=O)Nc4ccccc4-c4ccccc4)CC3)cc2)c1)NC[C@H](O)c1ccc(O)c2[nH]c(=O)ccc12 [Compound I-68]
inhibition in vivo at 0.1 mg [1, 4]: > 30% | pKi [2]: 10.00 | pEC50 [3]: 9.00

CN(CCCC(=O)Nc1ccc(CCNC[C@H](O)c2ccc(O)c3[nH]c(=O)ccc23)cc1)C(=O)CCN1CCC(OC(=O)Nc2ccccc2-c2ccccc2)CC1 [Compound I-8]
inhibition in vivo at 0.1 mg [1, 4]: > 30% | pKi [2]: 10.00 | pEC50 [3]: 9.00

Cc1ccc(C(=O)Nc2cccc(CCNC[C@H](O)c3ccc(O)c4[nH]c(=O)ccc34)c2)cc1N(C)C(=O)CCN1CCC(OC(=O)Nc2ccccc2-c2ccccc2)CC1 [Compound I-33]
Broncho. at 24 h [1, 4]: No | pKi [2]: 9.70 | pEC50 [3]: 9.00

Cc1cc(NC(=O)CCCN(C)C(=O)CCN2CCC(OC(=O)Nc3ccccc3-c3ccccc3)CC2)c(C)cc1CNC[C@H](O)c1ccc(O)c2[nH]c(=O)ccc12 [Compound I-5]
inhibition in vivo at 0.1 mg [1, 4]: > 30% | pKi [2]: 10.00 | pEC50 [3]: 9.00

CC(Cc1ccc(F)c(CC(=O)NCc2ccc(N(C)C(=O)CCN3CCC(OC(=O)Nc4ccccc4-c4ccccc4)CC3)cc2)c1)NC[C@H](O)c1ccc(O)c2[nH]c(=O)ccc12 (stereo partly shown) [Compound I-95]
inhibition in vivo at 0.1 mg [1, 4]: > 30% | pKi [2]: 9.70 | pEC50 [3]: 9.00

CC(Cc1cccc(CC(=O)Nc2cccc(N(C)C(=O)CCN3CCC(OC(=O)Nc4ccccc4-c4ccccc4)CC3)c2)c1)NC[C@H](O)c1ccc(O)c2[nH]c(=O)ccc12 (stereo partly shown) [Compound I-52]
Broncho. at 24 h [1, 4]: No | pKi [2]: 9.70 | pEC50 [3]: 9.00

C[C@@H](Cc1cccc(NC(=O)c2cccc(N(C)C(=O)CCN3CCC(OC(=O)Nc4ccccc4-c4ccccc4)CC3)c2)c1)NC[C@H](O)c1ccc(O)c2[nH]c(=O)ccc12 [Compound I-39]
Broncho. at 24 h [1, 4]: No | pKi [2]: 9.70 | pEC50 [3]: 9.00

C[C@H](Cc1ccc(NC(=O)c2cccc(N(C)C(=O)CCN3CCC(OC(=O)Nc4ccccc4-c4ccccc4)CC3)c2)cc1)NC[C@H](O)c1ccc(O)c2[nH]c(=O)ccc12 [Compound I-42]
Broncho. at 24 h [1, 4]: No

CC(Cc1cccc(CC(=O)NCCCCN(C)C(=O)CCN2CCC(OC(=O)Nc3ccccc3-c3ccccc3)CC2)c1)NC[C@H](O)c1ccc(O)c2[nH]c(=O)ccc12 (stereo partly shown) [Compound I-22]
inhibition in vivo at 0.1 mg [1, 4]: > 30% | pKi [2]: 10.00 | pEC50 [3]: 9.00

CN(C(=O)CCN1CCC(OC(=O)Nc2ccccc2-c2ccccc2)CC1)c1cccc(C(=O)Nc2cccc(CCNC[C@H](O)c3ccc(O)c4[nH]c(=O)ccc34)c2)c1 [Compound I-32]
Broncho. at 24 h [1, 4]: No | pKi [2]: 10.00 | pEC50 [3]: 9.00

C[C@@H](Cc1ccc(NC(=O)c2cccc(N(C)C(=O)CCN3CCC(OC(=O)Nc4ccccc4-c4ccccc4)CC3)c2)cc1)NC[C@H](O)c1ccc(O)c2[nH]c(=O)ccc12 [Compound I-43]
inhibition in vivo at 0.1 mg [1, 4]: > 30%

CN(C(=O)CCN1CCC(OC(=O)Nc2ccccc2-c2ccccc2)CC1)c1cccc(CC(=O)Nc2cccc(CCNC[C@H](O)c3ccc(O)c4[nH]c(=O)ccc34)c2)c1 [Compound I-62]
inhibition in vivo at 0.1 mg [1, 4]: > 30%

C[C@@H](Cc1cccc(CCNC(=O)Cc2ccc(N(C)C(=O)CCN3CCC(OC(=O)Nc4ccccc4-c4ccccc4)CC3)cc2)c1)NC[C@H](O)c1ccc(O)c2[nH]c(=O)ccc12 [Compound I-87]
Broncho. at 24 h [1, 4]: Yes (Bronchoprotective effect present at 24 h, e.g., ≧30% inhibition of the MCh response at 24 h in the rat Einthoven assay (100 μg))
